Measurements from patent US20060166867A1, “Novel conjugates of polysaccharides and uses thereof” (priority 2003, published 2006).

Columns and labels:
Assay in all cases: Gentamycin Disk Diffusion test
Conditions in all cases: disk method
S. aureus MSSA = format: cell-based, Staphylococcus aureus
S. aureus MRSA = format: cell-based, Staphylococcus aureus
S. epidermidis MSSE = format: cell-based, Staphylococcus epidermidis
S. epidermidis MRSE = format: cell-based, Staphylococcus epidermidis
E. Coli-ESBL negative = format: cell-based, Escherichia coli
E. Coli-ESBL positive = format: cell-based, Escherichia coli
[1] = test system: K. pneumoniae-ESBL negative; format: cell-based, Klebsiella pneumoniae
[2] = test system: K. pneumoniae-ESBL positive; format: cell-based, Klebsiella pneumoniae
Enterobacter aerogenes = format: cell-based
[3] = test system: A. baumannii-amikacin^s, meropenem^s; format: cell-based, Acinetobacter baumannii
[4] = test system: A. baumannii-amikacin^r, meropenem^r; format: cell-based, Acinetobacter baumannii
[5] = test system: Enterobacter cloacae W25161^r; format: cell-based
A. baumannii R16998^r = format: cell-based, Acinetobacter baumannii
[6] = test system: Enterococcus faecalis-vancomycin^r; format: cell-based
E. Coli B3095141^r = format: cell-based, Escherichia coli

Gentamycin
Gentamycin (disk): resistance or sensitivity of the tested strain (S. aureus MSSA): r (resistance of the tested strain (disk method diameter ≦12 millimeters, equivalent to a MIC ≧8 mg/liter))
Gentamycin (disk): resistance or sensitivity of the tested strain (S. aureus MRSA): s (sensitivity of the tested strain (disk method diameter ≧15 millimeters, equivalent to a MIC ≦4 mg/liter))
Gentamycin (disk): resistance or sensitivity of the tested strain (S. epidermidis MSSE): s (sensitivity of the tested strain (disk method diameter ≧15 millimeters, equivalent to a MIC ≦4 mg/liter))
Gentamycin (disk): resistance or sensitivity of the tested strain (S. epidermidis MRSE): s (sensitivity of the tested strain (disk method diameter ≧15 millimeters, equivalent to a MIC ≦4 mg/liter))
Gentamycin (disk): resistance or sensitivity of the tested strain (E. Coli-ESBL negative): s (sensitivity of the tested strain (disk method diameter ≧15 millimeters, equivalent to a MIC ≦4 mg/liter))
Gentamycin (disk): resistance or sensitivity of the tested strain (E. Coli-ESBL positive): r (resistance of the tested strain (disk method diameter ≦12 millimeters, equivalent to a MIC ≧8 mg/liter))
Gentamycin (disk): resistance or sensitivity of the tested strain [1]: s (sensitivity of the tested strain (disk method diameter ≧15 millimeters, equivalent to a MIC ≦4 mg/liter))
Gentamycin (disk): resistance or sensitivity of the tested strain [2]: r (resistance of the tested strain (disk method diameter ≦12 millimeters, equivalent to a MIC ≧8 mg/liter))
Gentamycin (disk): resistance or sensitivity of the tested strain (Enterobacter aerogenes): r (resistance of the tested strain (disk method diameter ≦12 millimeters, equivalent to a MIC ≧8 mg/liter))
Gentamycin (disk): resistance or sensitivity of the tested strain [3]: r (resistance of the tested strain (disk method diameter ≦12 millimeters, equivalent to a MIC ≧8 mg/liter))
Gentamycin (disk): resistance or sensitivity of the tested strain [4]: r (resistance of the tested strain (disk method diameter ≦12 millimeters, equivalent to a MIC ≧8 mg/liter))
Gentamycin (disk): resistance or sensitivity of the tested strain [5]: r (resistance of the tested strain (disk method diameter ≦12 millimeters, equivalent to a MIC ≧8 mg/liter))
Gentamycin (disk): resistance or sensitivity of the tested strain (A. baumannii R16998^r): r (resistance of the tested strain (disk method diameter ≦12 millimeters, equivalent to a MIC ≧8 mg/liter))
Gentamycin (disk): resistance or sensitivity of the tested strain [6]: r (resistance of the tested strain (disk method diameter ≦12 millimeters, equivalent to a MIC ≧8 mg/liter))
Gentamycin (disk): resistance or sensitivity of the tested strain (E. Coli B3095141^r): r (resistance of the tested strain (disk method diameter ≦12 millimeters, equivalent to a MIC ≧8 mg/liter))
